These are literature values, as cited in patent US4904678A, “Sickle cell anemia control” (Norris; Jerome J., priority 1987, dated 1990).

For the data set, the system named is erythrocytes. The following applies: about 4 mols of potassium cyanate incorporated per mol of hemoglobin tetramer.

SMILES strings stand for the structures.

Turning to `N#CO` [potassium cyanate], the “Erythrocytes prevented from sickling” value was “up to 80%”.
